Measurements as given in the supplement of paper PMC11061612.

Columns and labels:
Test in all cases: Bliss excess, mean over the matrix (fraction); higher = more synergy
[1] = test system: COR-L95 (Small Cell Lung Carcinoma)
Method in brief: (§1)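 Cell lines in DMEM/F12 or RPMI with 10% FBS were plated in 1536-well plates, held 24 hours at 37°C, 5% CO2, then given two-drug dose matrices for 72 hours (DMSO typically 0.2%). Viability was read by CellTiter-Glo 2.0 luminescence and scaled as inhibition from 0 (vehicle wells) to 1 (blank wells). Combination Emax is the second-highest inhibition in the matrix; Bliss excess is observed combination effect minus expected EA + EB − EA·EB, EA and EB being single-agent effects.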

[2] = test system: NCI-H1781 (Lung Adenocarcinoma)
Method in brief: as §1

[3] = test system: SW780 (Bladder Carcinoma)
Method in brief: as §1

[4] = test system: HPAC (Pancreatic Carcinoma)
Method in brief: as §1

[5] = test system: NALM-6 (B-Lymphoblastic Leukemia)
Method in brief: as §1

[6] = test system: MDA-MB-231 (Breast Carcinoma)
Method in brief: as §1

[7] = test system: LS-513 (Colorectal Carcinoma)
Method in brief: as §1

[8] = test system: SW1088 (Low Grade Glioma)
Method in brief: as §1

[9] = test system: NCI-H1793 (Lung Adenocarcinoma)
Method in brief: as §1

[10] = test system: COR-L23 (Non-Small Cell Lung Carcinoma)
Method in brief: as §1

[11] = test system: HT-29 (Colorectal Carcinoma)
Method in brief: as §1

[12] = test system: LU-99A (Non-Small Cell Lung Carcinoma)
Method in brief: as §1

[13] = test system: NCI-H1694 (Small Cell Lung Carcinoma)
Method in brief: as §1

[14] = test system: EM-2 (Chronic Myelogenous Leukemia)
Method in brief: as §1

[15] = test system: SW1990 (Pancreatic Carcinoma)
Method in brief: as §1

[16] = test system: DB (B-Cell Non-Hodgkin's Lymphoma)
Method in brief: as §1

IGR-1 (Melanoma) = test system: IGR-1 (Melanoma)
Method in brief: as §1

[17] = test system: SW1783 (Low Grade Glioma)
Method in brief: as §1

[18] = test system: DOV13 (Ovarian Carcinoma)
Method in brief: as §1

[19] = test system: HCC2157 (Breast Carcinoma)
Method in brief: as §1

Row | Compound | Bliss excess [1] | Bliss excess [2] | Bliss excess [3] | Bliss excess [4] | Bliss excess [5] | Bliss excess [6] | Bliss excess [7] | Bliss excess [8] | Bliss excess [9] | Bliss excess [10] | Bliss excess [11] | Bliss excess [12] | Bliss excess [13] | Bliss excess [14] | Bliss excess [15] | Bliss excess [16] | Bliss excess (IGR-1 (Melanoma)) | Bliss excess [17] | Bliss excess [18] | Bliss excess [19]
1 | Cc1cc2ncnn2cc1Nc1ncc2c(n1)n(C1CCOCC1)c(=O)n2C [AZD7648] + C[C@@H]1COCCN1C2=NC(=NC(=C2)C3(CC3)[S@](=N)(=O)C)C4=C5C=CNC5=NC=C4 [AZD6738] (first compound max 10 µM, 7x7, partner max 10 µM) | -0.0029 | 0.103 | 0.0476 | 0.0187 | -0.0561 | 0.037 | 0.0641 | 0.0289 | -0.0059 | -0.0121 | 0.0118 | 0.0077 | 0.0194 | -0.0013 | 0.0049 | -0.0509 | 0.0074 | 0.0913 | -0.0039 | -0.0528
2 | COc1nnc2ccc(N3CCC(c4ccc(OCCN5CCN(C)C(=O)[C@H]5C)cc4)CC3)nn12 [AZD5153] + C[C@@H]1COCCN1C2=NC(=NC(=C2)C3(CC3)[S@](=N)(=O)C)C4=C5C=CNC5=NC=C4 [AZD6738] (first compound max 1 µM, 7x7, partner max 10 µM) | -0.0357 | 0.0033 | -0.0052 | 0.0368 | -0.0624 | -0.0477 | -0.0211 | 0.0059 | 0.0127 | -0.0016 | -0.0307 | -0.0213 | 0.008 | 0.039 | -0.0424 | 0.0071 | 0.0759 | 0.0235 | -0.0623 | -0.0086
3 | CCN(CCO)CCCOc1ccc2c(Nc3cc(CC(=O)Nc4cccc(F)c4)[nH]n3)ncnc2c1 [AZD2811] + C[C@@H]1COCCN1C2=NC(=NC(=C2)C3(CC3)[S@](=N)(=O)C)C4=C5C=CNC5=NC=C4 [AZD6738] (first compound max 1 µM, 7x7, partner max 10 µM) | -0.0658 | 0.0216 | -0.0262 | -0.0244 | -0.0435 | -0.103 | -0.0524 | -0.103 | -0.0341 | -0.0192 | -0.0459 | -0.0732 | -0.0073 | -0.0433 | -0.0555 | -0.0302 | 0.0315 | -0.0501 | -0.0619 | -0.0704
4 | Cc1cc2ncnn2cc1Nc1ncc2c(n1)n(C1CCOCC1)c(=O)n2C [AZD7648] + CN(C)CCCOc1ccc(-c2ccc3ncc4c(c3c2)n(C2CCOCC2)c(=O)n4C)cn1 [AZD0156] (first compound max 10 µM, 7x7, partner max 1 µM) | -0.0218 | 0.0151 | -0.0069 | -0.0025 | -0.0184 | 0.0146 | -0.021 | -0.0698 | 0.0044 | -0.0212 | 0.0289 | -0.0208 | 0.0062 | 0.0183 | -0.0182 | -0.0402 | -0.0223 | -0.0078 | -0.0169 | 0.0081
5 | Cc1c2c(nn1C)CSCc1cc(n(C)n1)CSc1cc(c3ccccc3c1)OCCCc1c(C(=O)O)n(C)c3c-2c(Cl)ccc13 [AZD5991] + Cn1cnc2c(F)c(Nc3ccc(Br)cc3Cl)c(C(=O)NOCCO)cc21 [Selumetinib] (first compound max 1 µM, 7x7, partner max 3 µM) | -0.039 | -0.0165 | 0.0631 | 0.005 | 0.0165 | 0.0135 | -0.0242 | -0.0543 | 0.0133 | -0.0051 | -0.006 | -0.0363 | -0.0048 | -0.0053 | -0.0222 | 0.0063 | 0.0239 | -0.0782 | 0.0216 | -0.0137
6 | Cn1cnc2c(F)c(Nc3ccc(Br)cc3Cl)c(C(=O)NOCCO)cc21 [Selumetinib] + C[C@@H]1COCCN1C2=NC(=NC(=C2)C3(CC3)[S@](=N)(=O)C)C4=C5C=CNC5=NC=C4 [AZD6738] (first compound max 10 µM, 7x7, partner max 10 µM) | -0.0778 | -0.0397 | 0.0087 | -0.0015 | -0.0063 | -0.025 | 0.0046 | -0.0737 | -0.0402 | -0.0148 | -0.019 | 0.0565 | -0.0037 | 0.0264 | -0.0653 | -0.0353 | 0.0257 | -0.103 | -0.11 | 0.0059
7 | C=CCn1c(=O)c2cnc(Nc3ccc(N4CCN(C)CC4)cc3)nc2n1-c1cccc(C(C)(C)O)n1 [AZD1775] + C[C@@H]1COCCN1C2=NC(=NC(=C2)C3(CC3)[S@](=N)(=O)C)C4=C5C=CNC5=NC=C4 [AZD6738] (first compound max 1 µM, partner max 10 µM) | -0.101 | -0.0334 | -0.0092 | 0.0473 | 0.0491 | 0.0726 | -0.0242 | -0.0902 | -0.0289 | 0.0462 | -0.0089 | -0.0377 | 0.0818 | 0.0362 | -0.0352 | -0.0023 | 0.0632 | -0.0432 | 0.0366 | 0.0218
8 | COc1cccc2c1C(=O)c1c(O)c3c(c(O)c1C2=O)C[C@@](O)(C(=O)CO)C[C@@H]3O[C@H]1C[C@H](N)[C@H](O)[C@H](C)O1 [Doxorubicin] + Cc1cc2ncnn2cc1Nc1ncc2c(n1)n(C1CCOCC1)c(=O)n2C [AZD7648] (first compound max 1 µM, 7x7, partner max 10 µM) | 0.0084 | 0.0578 | 0.0082 | 0.0275 | 0.139 | -0.0124 | 0.057 | 0.0309 | 0.0117 | 0.0351 | 0.0099 | 0.0269 | 0.12 | 0.0536 | -0.0224 | 0.0888 | 0.0132 | 0.0262 | 0.0218 | 0.112
